Assay results: patent publication US20240156800A1, “EP300 DEGRADER AND USES THEREOF IN NEUROBLASTOMA” (DANA-FARBER CANCER INSTITUTE, INC., priority 2021, published 2024)

How the values were obtained:
[1] = test system: NB cell lines; assay: Colony formation assays of NB cells with EP300/CBP inhibitors; format: cell-based, human; settings: multiple NB cell lines (Kelly, BE2C, NB69, NGP); compared with C646 and CBP30
Method: (§1) Cells were infected with lentiviruses encoding sgRNAs or treated with compounds as described. Colony assays were performed by replating cells at 500 cells per well in 6-well dishes and grown in regular growth media for 10 d before 100% methanol fixation, 0.05% crystal violet staining, and quantitation. Experiments were completed in triplicate; data shown are the average of three independent experiments. Cell Titer-Glo® assay was performed as per the manufacturer's instructions (Promega®). Briefly, 1000 cells/well were plated into 96-well plates and treated with a range of compound dosing. Cell viability was measured at the noted time points based on luminescence by the Cell Titer-Glo® assay (Promega®) and read on an Envision 2104 (PerkinElmer®, USA) according to the manufacturer's protocol.

[2] = test system: pro- and anti-apoptotic mRNA transcripts; assay: ERCC spike-in RNA-seq of treated Kelly cells; format: cell-based, human; settings: 500 nM, 24 h
Method: For in vitro analyses, total RNA was extracted from control […] or JQAD1 treated Kelly cells using TRIzolTM reagent (Ambion). Prior to extraction, exogenous spike-in of synthetic External RNA Control Consortium (ERCC) RNA controls were added based on cell number (Ambion). Samples were treated with RNAse-free DNAse I and spin purified using the Qiagen® RNeasy Kit (Qiagen®). Purified RNA samples were subjected to library construction with poly-adenylation preparation and sequencing using the Illumina NextSeq® 500 (paired end, 75bp reads). RNA-seq reads were aligned to a reference index containing the sequences of the hg19 revision of the human reference genome and the ERCC spike-in probes using hisat 2.1.0. Expression was quantified using sorted BAMs, a gene reference built using ERCC sizes and RefSeq genes downloaded Jul. 15, 2017, and htseq-count with parameters -I gene_id- stranded=reverse -f bam -m intersection-strict. Read counts were converted to transcripts per million (TPM) and used for cell number-normalization. The expression of all RefSeq genes and ERCC probes was floored at 0.01 and a pseudocount of 0.1 was added to all entries. Values were normalized by equilibrating the expression of the ERCC probes among experiments using normalize.loess from the affy R package. The ERCC-normalized expression of each gene after 24 h of either […] or JQAD1 treatment was compared against its expression in dimethyl sulfoxide (DMSO) treated samples to create two-fold changes.

[3] = test system: cleaved caspase-3 and cleaved PARP1; assay: Western blotting of apoptosis markers; format: cell-based, human
Method: (§2) Cells growing in culture were lysed for whole cell lysates as described in Durbin et al. Nat. Genet. 50:1240-1246 (2018) and Wang et al. Nat. Commun. 10:5622 (2019). Nuclear lysates were prepared using the NE-PER® nuclear lysate kit (Thermo Scientific™) according to the manufacturer's protocol. Chromatin lysates were prepared with the total histone extraction kit (Epigentek). Briefly, equivalent amounts of protein were resolved by western blotting using 4-12% Bis-Tris NuPAGE™ gels (Thermo-Fisher Scientific) prior to transfer, and immunoblotting using primary antibodies to: MYCN (1:1000, Cell Signaling Technology®), H3K27ac (1:1000, Abcam), total H3 (1:1000, Cell Signaling Technology®), EP300 (1:1000, Abcam), CBP (1:500, Cell Signaling Technology®), Cas9 (1:1000, Cell Signaling Technology®), cleaved-PARP1 (1:1000, Cell Signaling Technology), cleaved Caspase-3 (1:1000, Cell Signaling Technology®), β-actin (1:1000, Cell Signaling Technology®), GATA3 (1:1000, EMD Millipore™), TFAP2β (1:1000, Cell Signaling Technology®), Vinculin (1:1000, EMD Millipore™), CRBN (1:1000, Cell Signaling Technology®), HAND2 (1:1000, Santa Cruz Biotechnology). Secondary antibodies were horseradish peroxidase (HRP)-conjugated anti-rabbit or anti-mouse (1:5000, Santa Cruz Biotechnology), incubated prior to exposure to enhanced chemiluminescence reagents (GE, Amersham). For immunoprecipitation, equal amounts of protein were diluted in buffer C as described in Mansour et al. Science 346:1373-1377 (2014) and incubated with antibodies covalently conjugated to Dynabeads™ M-270 beads (Thermo-Fisher Scientific) overnight according to the manufacturer's directions. Antibodies used included: H3K27ac, EP300 (Abcam), CBP, TFAP2β (Cell Signaling Technology®), rabbit immunoglobulin G (IgG) (Santa Cruz Biotechnology®). Immunoprecipitated protein was isolated as per the manufacturer's directions and subjected to western blotting, as described above, or mass spectrometry.

[4] = molecular target: His-tagged CRBN (Homo sapiens, UniProt Q96SW2); assay: AlphaLISA assay with biotinylated pomalidomide and His-tagged CRBN; format: binding; settings: competition with biotinylated pomalidomide
Method: To determine whether JQAD1 interacts with the E3 ligase receptor CRBN, the AlphaLISA® platform was used to perform AlphaLISA® fluorescent assays using biotinylated pomalidomide bound to beads and His-tagged CRBN (Yasgar et al. Methods Mol. Biol. 1439:77-98 (2016)). […] Next, biotinylated JQAD1 (Biotin-JQAD1, Scheme 2) was synthesized and incubated with Kelly cell lysates, followed by streptavidin-based purification. […] PROTAC®s may acquire preferential specificity for one of two possible target enzymes due to restricted three-dimensional interactions, as noted in Burslem and Crews, Cell 181:102-14 (2020).
Assays were performed with minimal modifications from the manufacturer's protocol (PerkinElmer®, USA). Briefly, a 2× solution of components with final concentrations of CRBN-DDB1 at 50 nM, Ni-coated Acceptor Beads at 20 μg/ml, and 15 nM biotinylated-pomalidomide were added in […] to 384-well plates (AlphaPlate-384, PerkinElmer®, USA). 100 nL of compound in DMSO from stock plates were added by pin transfer using a Janus Workstation (PerkinElmer®, USA). Streptavidin-coated donor beads (20 μg/ml final) were added to the solution, followed by incubation at room temperature for 1 hour, and reading on an Envision 2104 (PerkinElmer®, USA), by the manufacturer's protocol.

[5] = test system: Kelly-Cas9 control or CRBN knockout cells; assay: CellTiter-Glo assay of Kelly-Cas9 control or CRBN knockout cells; format: cell-based, human; settings: range of doses, seven days
Method: as §1
sgRNAs targeting individual genes were subcloned by standard methodologies within pLKO.5-EFGP. Kelly, SIMA, BE2C, and NGP cells were infected with lenticas9 followed by blasticidin selection. Stable expression of cas9 was established by western blotting of protein lysates using cas9 antibody (Cell Signaling Technology®). Following infection of pLKO.5-EGFP-sgRNA lentivirus, cells were cultured for the identified times prior to evaluation. BE2C cells were infected with pLC-zsgreen or pLC-CRBN lentiviruses and selected using 500 μg/mL hygromycin (Invitrogen™)

[6] = test system: Kelly, NGP and BE2C NB cells; assay: Propidium iodide DNA flow cytometry (cell cycle, sub-G1); format: cell-based, human
Method: Cells were infected with lentiviruses encoding single guide RNAs (sgRNAs) or treated with compounds as described for the noted length of time. Cells were then liberated from adhesion to the plate using a sterile spatula (Coming®) followed by centrifugation, aspiration of media, and resuspension in hypotonic citrate-propidium iodide (PI) solution for 30 minutes at 37° C. (Tate et al. Cytometry 4:211-215 (1983)). Nuclei were stabilized using 5M NaCl prior to analysis on a FACSAria™ II (BD Biosciences). Analysis of cell cycle phases was performed using FlowJo® v10.7 (BD Biosciences).

[7] = test system: MYCN; assay: Western blotting of MYCN (whole lysates and chromatin extracts); format: cell-based, human
Method: as §2

[8] = test system: H3K27ac; assay: Western blotting of H3K27ac in treated NB cells; format: cell-based, human
Method: as §2

[9] = BE2C 1 μM, Kelly 500 nM, seven days

Chain of His-tagged CRBN (Q96SW2 whole entry): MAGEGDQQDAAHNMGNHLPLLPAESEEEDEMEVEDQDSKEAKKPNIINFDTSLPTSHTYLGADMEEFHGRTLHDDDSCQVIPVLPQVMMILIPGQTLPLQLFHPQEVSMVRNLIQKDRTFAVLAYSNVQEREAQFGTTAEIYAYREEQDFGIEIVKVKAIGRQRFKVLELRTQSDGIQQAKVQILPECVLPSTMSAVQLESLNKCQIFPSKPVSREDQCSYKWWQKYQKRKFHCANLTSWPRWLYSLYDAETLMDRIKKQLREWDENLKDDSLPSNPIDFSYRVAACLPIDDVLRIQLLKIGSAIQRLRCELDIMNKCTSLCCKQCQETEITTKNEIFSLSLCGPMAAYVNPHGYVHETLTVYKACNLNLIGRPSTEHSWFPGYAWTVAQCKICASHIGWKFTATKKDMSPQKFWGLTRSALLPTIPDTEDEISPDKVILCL
Chain of His-tagged CRBN (Q16531 whole entry partner): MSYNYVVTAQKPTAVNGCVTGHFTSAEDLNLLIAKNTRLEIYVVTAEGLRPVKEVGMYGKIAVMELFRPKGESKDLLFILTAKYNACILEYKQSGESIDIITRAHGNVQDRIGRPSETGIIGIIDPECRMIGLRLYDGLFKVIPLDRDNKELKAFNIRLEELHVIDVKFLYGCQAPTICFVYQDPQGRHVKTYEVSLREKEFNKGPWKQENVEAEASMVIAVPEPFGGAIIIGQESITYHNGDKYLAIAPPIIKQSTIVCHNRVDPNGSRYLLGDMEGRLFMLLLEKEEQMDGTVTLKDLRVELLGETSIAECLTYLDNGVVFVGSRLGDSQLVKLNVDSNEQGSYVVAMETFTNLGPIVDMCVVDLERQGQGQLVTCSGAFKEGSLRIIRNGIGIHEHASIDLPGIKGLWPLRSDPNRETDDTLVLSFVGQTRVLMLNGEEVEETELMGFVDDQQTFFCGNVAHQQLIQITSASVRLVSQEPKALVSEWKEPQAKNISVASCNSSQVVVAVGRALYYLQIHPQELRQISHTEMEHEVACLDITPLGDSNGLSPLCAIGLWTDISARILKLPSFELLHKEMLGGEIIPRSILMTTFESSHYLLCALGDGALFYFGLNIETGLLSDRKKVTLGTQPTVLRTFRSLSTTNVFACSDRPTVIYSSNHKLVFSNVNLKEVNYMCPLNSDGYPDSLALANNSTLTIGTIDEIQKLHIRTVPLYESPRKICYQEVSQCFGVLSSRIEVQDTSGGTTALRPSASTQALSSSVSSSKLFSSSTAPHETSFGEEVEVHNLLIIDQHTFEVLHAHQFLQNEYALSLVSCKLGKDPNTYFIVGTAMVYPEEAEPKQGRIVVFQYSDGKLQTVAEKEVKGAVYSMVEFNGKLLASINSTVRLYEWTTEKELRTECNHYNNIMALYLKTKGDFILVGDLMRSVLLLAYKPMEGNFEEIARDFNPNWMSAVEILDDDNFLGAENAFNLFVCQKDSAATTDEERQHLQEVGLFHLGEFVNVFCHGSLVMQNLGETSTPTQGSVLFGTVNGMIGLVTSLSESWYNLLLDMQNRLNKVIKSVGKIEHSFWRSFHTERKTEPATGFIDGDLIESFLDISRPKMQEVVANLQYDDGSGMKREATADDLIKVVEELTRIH

interaction with CRBN [4]	SMILES	reduction of neuroblastoma colony formation [1]	transcript levels of BIM, BID, PUMA, BAX, BCL2 and MCL1 [2]	cleaved caspase 3 and PARP1 after prolonged treatment [3, 9]	apoptosis: cleavage of caspase-3 and PARP1 ([3]; Kelly (1 μM) and NGP (2.5 μM) cells, 12-36 h)	growth of CRBN-knockout Kelly cells [5]	growth of control-edited Kelly cells [5]	cell cycle effect ([6]; BE2C, Kelly, NGP cells, within 24 hours)	cell cycle / subG1 effect ([6]; Kelly and NGP cells)	MYCN expression after prolonged treatment [7, 9]	chromatin-bound MYCN ([7]; Kelly cells, 0.5 and 1 μM, 24 h, chromatin extracts)	H3K27Ac modification after prolonged treatment [8, 9]	H3K27ac modification ([8]; Kelly cells, 24 h)
did not	CNC(=O)Nc1ccc2c(c1)CC[C@@]21OC(=O)N(CC(=O)N(Cc2ccc(F)cc2)[C@@H](C)C(F)(F)F)C1=O [A485]	most potent compound in reducing neuroblastoma colony formation	unaffected	induction of cleaved caspase 3 and poly [ADP-ribose] polymerase 1 (PARP1)	little effect on these parameters	equivalently inhibited the growth of both CRBN-knockout cells and controls	equivalently inhibited the growth of both CRBN-knockout cells and controls	G1 cell cycle arrest	G1 cell cycle arrest	loss of MYCN expression	did not show MYCN loss from chromatin extracts up to 1.0 μM	global loss of the H3K27Ac modification	loss of H3K27ac
efficiently interacted with CRBN	Nc1cccc2c1C(=O)N(C1CCC(=O)NC1=O)C2=O (centres unmarked) [pomalidomide]												
